Consider five compounds from patent US20160060260A1, “BROMODOMAIN INHIBITORS FOR TREATING DISEASE” (Board of Regents, The University of Texas System, priority 2014, published 2016).

Molecules are shown by their SMILES.

The target in experiment [1] is T1, Recombinant human His-tagged Trim24-PHD-bromodomain (Homo sapiens, UniProt O15164).
T1 construct: Recombinant human His-tagged Trim24-PHD-bromodomain (produced in-house); made in house
T1 sequence (O15164 824-1006 limits assumed): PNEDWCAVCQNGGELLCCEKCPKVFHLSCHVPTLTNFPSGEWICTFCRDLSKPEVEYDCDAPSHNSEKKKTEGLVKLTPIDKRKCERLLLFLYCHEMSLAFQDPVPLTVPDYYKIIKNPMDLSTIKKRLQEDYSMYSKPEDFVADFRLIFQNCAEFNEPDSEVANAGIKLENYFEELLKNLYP
The experiment in a line: Trim24 AlphaScreen Assay. The class given is binding. As to conditions: 5 nM Trim24 protein, 15 nM biotinylated H3K23ac (1-33aa) peptide. Summed up:
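His-tagged Trim24-PHD-bromodomain, biotinylated H3K23ac (1-33aa) peptide and compound incubated 1 h at room temperature in 50 mM Hepes pH 7.5, 100 mM NaCl, 0.12 mM Triton X-100.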

For another experiment, the target named is T2, TRIM24 (Homo sapiens, UniProt O15164).
T2 construct: purchased DiscoveRx (BROMOscan); host or cells: T7 phage in E. coli host derived from BL21
T2 sequence (O15164 899-1004 limits assumed): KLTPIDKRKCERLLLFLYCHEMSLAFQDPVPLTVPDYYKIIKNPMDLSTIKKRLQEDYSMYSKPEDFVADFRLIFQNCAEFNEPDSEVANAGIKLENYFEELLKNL
The experiment in a line: BROMOscan DiscoveRx Binding Constant Assay (TRIM24). As to conditions: qPCR readout. An excerpt: (§1) Compounds that bind the bromodomain active site and directly (sterically) or indirectly (allosterically) prevent bromodomain binding to the immobilized ligand, will reduce the amount of protein captured on the solid support (Panels A & B). […] Screening “hits” are identified by measuring the amount of bromodomain captured in test versus control samples by using a quantitative, precise and ultra-sensitive qPCR method that detects the associated DNA label. In a similar manner, dissociation constants (Kd's) for test compound-bromodomain interactions are calculated by measuring the amount of bromodomain captured on the solid support as a function of the test compound concentration.
(§2) Bromodomain assays. T7 phage strains displaying bromodomains were grown in parallel in 24-well blocks in an E. coli host derived from the BL21 strain. E. coli were grown to log-phase and infected with T7 phage from a frozen stock (multiplicity of infection=0.4) and incubated with shaking at 32° C. until lysis (90-150 minutes). The lysates were centrifuged (5,000×g) and filtered (0.2 μm) to remove cell debris. Streptavidin-coated magnetic beads were treated with biotinylated small molecule or acetylated peptide ligands for 30 minutes at room temperature to generate affinity resins for bromodomain assays. The liganded beads were blocked with excess biotin and washed with blocking buffer (SeaBlock (Pierce), 1% BSA, 0.05% Tween 20, 1 mM DTT) to remove unbound ligand and to reduce non-specific phage binding. […] Test compounds were prepared as 1000× stocks in 100% DMSO and subsequently diluted 1:10 in monoethylene glycol (MEG) to create stocks at 100× the screening concentration (resulting stock solution is 10% DMSO/90% MEG). The compounds were then diluted directly into the assays such that the final concentration of DMSO and MEG were 0.1% and 0.9%, respectively. All reactions were performed in polystyrene 96-well plates in a final volume of 0.135 ml.
(§3) The beads were then re-suspended in elution buffer (lx PBS, 0.05% Tween 20, 2 μM nonbiotinylated affinity ligand) and incubated at room temperature with shaking for 30 minutes. The bromodomain concentration in the eluates was measured by qPCR.
(§4) An 11-point 3-fold serial dilution of each test compound was prepared in 100% DMSO at 1000× final test concentration. This serial is then diluted to 100× in ethylene glycol and subsequently diluted to 1× in the assay (final DMSO concentration=0.1%, Ethylene glycol concentration=0.9%). […] If the initial Kd determined was <0.169 nM (the lowest concentration tested), the measurement was repeated with a serial dilution starting at a lower top concentration.
(§5) Binding constants (Kd's) were calculated with a standard dose-response curve using the Hill equation: Response=Background+Signal−Background 1+(Kd Hill Slope/DoseHill Slope) The Hill Slope was set to −1. Curves were fitted using a non-linear least square fit with the Levenberg-Marquardt algorithm.
In general terms: Real-time PCR tracks product formation cycle by cycle.

The target of a further experiment is T3, BRPF1 (Homo sapiens, UniProt P55201).
T3 construct: purchased DiscoveRx (BROMOscan); host or cells: T7 phage in E. coli host derived from BL21
T3 sequence (P55201 628-732 limits assumed): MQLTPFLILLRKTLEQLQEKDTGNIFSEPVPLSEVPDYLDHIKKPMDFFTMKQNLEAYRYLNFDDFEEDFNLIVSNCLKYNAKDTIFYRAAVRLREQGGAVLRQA
Put plainly: BROMOscan DiscoveRx Binding Constant Assay (BRPF1). As to conditions: qPCR readout.
From the text: as §1, §2, §3, §4, §5

A further experiment has as its target T4, BRPF2 (Homo sapiens, UniProt O95696).
T4 construct: purchased DiscoveRx (BROMOscan); host or cells: T7 phage in E. coli host derived from BL21
T4 sequence (O95696 562-666 limits assumed): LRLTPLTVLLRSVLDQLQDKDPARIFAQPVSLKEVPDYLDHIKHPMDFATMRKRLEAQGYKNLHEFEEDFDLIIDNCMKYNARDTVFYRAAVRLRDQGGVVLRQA
Put plainly: BROMOscan DiscoveRx Binding Constant Assay (BRPF2). As to conditions: qPCR readout.
From the text: as §1, §2, §3, §4, §5

In the next experiment the target is T5, BRPF3 (Homo sapiens, UniProt Q9ULD4).
T5 construct: purchased DiscoveRx (BROMOscan); host or cells: T7 phage in E. coli host derived from BL21
T5 sequence (Q9ULD4 589-693 limits assumed): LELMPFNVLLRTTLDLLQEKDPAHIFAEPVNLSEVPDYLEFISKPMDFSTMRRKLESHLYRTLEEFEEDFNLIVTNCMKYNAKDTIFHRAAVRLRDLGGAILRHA
Put plainly: BROMOscan DiscoveRx Binding Constant Assay (BRPF3). To be noted: qPCR readout.
From the text: as §1, §2, §3, §4, §5

For the compound `Cc1nc(S(=O)(=O)Nc2cc3c(cc2Oc2cccc(OCC(C)C)c2)n(C)c(=O)n3C)cn1C` [Example 45, N-(6-(3-isobutoxyphenoxy)-1,3-dimethyl-2-oxo-2,3-dihydro-1H-benzo[d]imidazol-5-yl)-1,2-dimethyl-1H-imidazole-4-sulfonamide], in experiment [1], the IC50 (commonly the concentration that gives 50% inhibition) is 10 to 100 nM. The Kd (in general, a measure of binding affinity in units of concentration) lay in the range of 1 to 10 nM at TRIM24, 11 to 100 nM at BRPF1, 11 to 100 nM on BRPF2 and 11 to 100 nM at BRPF3.

On to `Cn1c(=O)n(C)c2cc(Oc3cccc(OCC(F)(F)F)c3)c(NS(=O)(=O)c3cccnc3)cc21` [Example 125, N-(1,3-dimethyl-2-oxo-6-(3-(2,2,2-trifluoroethoxy)phenoxy)-2,3-dihydro-1H-benzo[d]imidazol-5-yl)pyridin-3-sulfonamide], for which the IC50 in experiment [1] lay within 10 to 100 nM. Also, the Kd was 1 to 10 nM on TRIM24, 1 to 10 nM on BRPF1, 1 to 10 nM at BRPF2 and 11 to 100 nM on BRPF3.

On to `CCCOc1cc(OCCCCCCN)cc(Oc2cc3c(cc2NS(=O)(=O)c2cn(C)cn2)n(C)c(=O)n3C)c1` [Example 8, N-(6-(3-((6-aminohexyl)oxy)-5-propoxyphenoxy)-1,3-dimethyl-2-oxo-2,3-dihydro-1H-benzo[d]imidazol-5-yl)-1-methyl-1H-imidazole-4-sulfonamide 2,2,2-trifluoroacetate], for which the IC50 in experiment [1] fell in the range of 1 to 10 nM. The Kd on TRIM24 was less than 1 nM; on BRPF1 it was 1 to 10 nM; on BRPF2, 1 to 10 nM; on BRPF3, 11 to 100 nM.

For the compound `CCCOc1cccc(Oc2cc3c(cc2NS(=O)(=O)c2ccc(OC)c(OC)c2)n(C)c(=O)n3C)c1` [Example 110, N-(1,3-dimethyl-2-oxo-6-(3-propoxyphenoxy)-2,3-dihydro-1H-benzo[d]imidazol-5-yl)-3,4-dimethoxybenzenesulfonamide], the IC50 in experiment [1] was 10 to 100 nM. The Kd at TRIM24 is 1 to 10 nM; at BRPF1 it was 1 to 10 nM; at BRPF2, 11 to 100 nM; at BRPF3, 11 to 100 nM.

In the case of `COCCCOc1cccc(Oc2cc3c(cc2NS(=O)(=O)c2cn(C)c(C)n2)n(C)c(=O)n3C)c1` [Example 46, N-(6-(3-(3-methoxypropoxy)phenoxy)-1,3-dimethyl-2-oxo-2,3-dihydro-1H-benzo[d]imidazol-5-yl)-1,2-dimethyl-1H-imidazole-4-sulfonamide], in experiment [1], the IC50 fell in the range of 100 to 1000 nM. The Kd was 11 to 100 nM at TRIM24, 11 to 100 nM at BRPF1, 11 to 100 nM on BRPF2 and greater than 100 nM on BRPF3.
